This is an account of results in patent US10925858B2, “S-nitrosoglutathione (GSNO) and GSNO reductase inhibitors for use in therapy” (MUSC FOUNDATION FOR RESEARCH DEVELOPMENT, priority 2017, dated 2021).

For one experiment, the system named is myelin. Kind of experiment: Myelin status in spinal cords of EAE mice (immunofluorescent staining for MBP, Western for MBP and PLP). The format is in vivo, C57BL/6 mice. The settings on record: 1 mg/kg/day, N6022 vs FTY720. As for the experimental part: Female C57BL/6 mice of 8-12 weeks of age, purchased from Jackson Laboratory, were provided with food and water ad libitum and were kept in pathogen free animal care facility of Medical University of South Carolina (MUSC) throughout the study. All procedures were conducted in accordance with accepted standards of humane care as approved by the Institutional Animal Care and Use Committee (Approved number: AR #1644). EAE was induced as described previously (Nath et al., 2009). Briefly, mice were immunized subcutaneously in the flank regions with MOG35-55 peptide (MOG; 200 μg; Peptide International) emulsified (1:1) in 100 ul complete Freund's adjuvant (CFA) on day 0 and day 7. Additionally, 300 ng of Pertussis toxin (Sigma-Aldrich, St. Louis, Mo.) was given on day 0 and day 2 by i.p. injection. […] Clinical signs of EAE were scored by examiners blinded to experimental treatments using the following scale: 0=no clinical signs of disease; 1=piloerection and sluggish; 2=limp tail (ataxia); 2.5=ataxia with partial hind limb paralysis; 3=full paralysis of hind limb; 3.5=full paralysis of hind limb with paralysis of one fore limb; 4=full paralysis of two limbs; 4.5=moribund stage; 5=death. […]
Tissue samples were embedded in paraffin block and sectioned transversely (5 μm-thick). […] For the quantitation of infiltrates, the digital images were analyzed by ImageJ (NIH, Bethesda, Md.). […]

The test system of the next experiment is cerebral microvessels. Kind of experiment: Transmission electron microscopy, ultrastructure of microvessels of diabetic mice. The format is in vivo. The settings on record: cortex and hippocampus, GSNO supplemented diabetic animals, 8 weeks. As for the experimental part:
Male laca mice weighing between 28-32 g were procured from the Central Animal House, Panjab University, Chandigarh. The animals were acclimatized and were fed with standard pellet diet and water ad libitum. The experimental protocols were approved by the Institutional Ethics Committee and were conducted according to Indian National Science Academy (INSA) guidelines for the use and care of experimental animals. The animals were divided into four groups: (i) Control animals received phosphate buffered saline (PBS) throughout the study; (ii) Control+GSNO animals were administered with GSNO 100 μg/kg body weight orally, dissolved in PBS after every 24 h for 8 weeks; (iii) Diabetic animals were injected with STZ at a dose of 40 mg/kg body weight intraperitoneally for 5 days dissolved in 0.1 mol/L citrate buffer, pH 4.5 and Diabetic+GSNO mice were administered GSNO 100 μg/kg body weight orally dissolved in PBS after every 24 h for 8 weeks after the induction of diabetes. Animals were assessed weekly for development of diabetic encephalopathy in terms of memory deficits. All experimental procedures were done on mice at the end of study. Transmission electron microscopy was carried out by the method described by Gao et al., (2005). […]

Molecules are shown by their SMILES.

As for `Cc1cc(C(N)=O)ccc1-n1c(CCC(=O)O)ccc1-c1ccc(-n2ccnc2)cc1` [N6022, reference compound], the “protection against myelin loss in the spinal cords” value in the experiment with myelin is listed as “protects against the myelin loss in the spinal cords of EAE mice greater than FTY720 treatment”. As for `N[C@@H](CCC(=O)N[C@@H](CSN=O)C(=O)NCC(=O)O)C(=O)O` [GSNO, S-nitrosoglutathione], the ultrastructure of microvessels result in the experiment on cerebral microvessels is listed as “improved the ultrastructure of the damaged microvessels”.
